“And” between values parts separate entries of the source, which are not always exact repeats. Identical values can stand only once.
Tested on: AMO-1 xenografts
Assay: AMO-1 xenograft efficacy (tumor volume, body weight)
Type: in vivo, mouse
Procedure: All animal studies were conducted in accordance with the guidelines approved by the Institutional Animal Care and Use Committees of AbbVie. The research protocol was approved by In Vivo Pharmacology at AbbVie prior to study initiation but was not publicly registered or disclosed. Female C.B-17 SCID-beige mice (AMO-1, OPM-2, NCI-H929, and OCI-AML2 xenografts) and female NSG mice (MV4-11-Red.Fluc systemic) were purchased from Charles River Laboratories (Wilmington, MA). Animals were housed in a light cycle-controlled room with HEPA filtration at 22 °C. Animals had nesting and climbing cage topper as the primary environmental enrichment. Animals were inoculated subcutaneously in the right flank with 5 × 10^6 (AMO-1, OPM-2, NCI-H929, and OCI-AML2) or intravenous (IV) with 5 × 10^6 (MV4-11-Red.Fluc). The inoculation volume (0.2 mL) comprised a 50:50 mixture of cells in growth media and Matrigel (BD Biosciences) for subcutaneous injections and 100% phosphate-buffered saline for IV administration. All cell lines used in this publication were authenticated using IDEXX for STR profiling as well as their IMPACT and human IMPACT panels for pathogen screening. Electronic calipers were used to measure the length and width of each tumor 2 to 3 times per week. Tumor volume was estimated by applying the following equation: volume = length × width^2/2. All groups remained blinded during measurements and dosing; only veterinary staff were aware of group identity. When tumors reached approximately 200 mm^3, mice were randomized by match and distributed into treatment and control groups. All xenograft trials were conducted using 5 to 10 mice per group, and all mice were ear tagged and monitored individually throughout the studies. […] Tumor burden in the systemic MV4-11-Red.Fluc experiment was measured using an IVIS® spectrum from PerkinElmer by taking the total photon flux of the entire dorsal side of an individual mouse. […] A background control mouse that was tumor naive but received D-Luciferin was placed in the upper left corner of each image. The total flux from this animal was subtracted from the total flux of each animal present in the image.
For in vivo studies, maximal tumor growth inhibition (TGI) was calculated as the greatest treatment response using the following equation: Maximal TGI = (1 − mean tumor volume of the treated group/mean tumor volume of the vehicle control group) × 100. The tumor growth delay (TGD) percentage was determined as the percentage increase of the median time period for the treatment group to reach an arbitrary tumor volume of 1000 mm^3 relative to the vehicle control group. […] A power analysis was conducted using historical data to determine the number of animals required to yield significance of 0.05 at a 30% difference. […] Data from experiments in vivo were analyzed using the student’s t-test for TGI values and the Mann–Whitney U test for TGD using Excel and GraphPad Prism. Fisher’s exact test was used to probe significance of differences in response frequency.

[1] = 6.25 mg/kg Q7Dx2 IV, SCID-beige female mice, Day 26
[2] = 6.25 mg/kg Q7Dx2 IV, SCID-beige female mice, Day 28
[3] = 6.25 mg/kg Q7Dx2 IV, SCID-beige mice, Day 13 (measure date 10/25/2017, dosing begin 10/26/2017)
[4] = 6.25 mg/kg QDx1 IV, Day 26, n=8
[5] = 6.25 mg/kg QDx1 IV, Day 28, n=8
[6] = 6.25 mg/kg QDx1 IV, SCID-beige mice, Day 21
[7] = 6.25 mg/kg QDx1 IV, SCID-beige mice, Day 23
[8] = 6.25 mg/kg QDx1 IV, SCID-beige mice, Day 23, mean(T)/mean(C)
[9] = 6.25 mg/kg QDx1 IV, SCID-beige mice, Day 23, median(T)/median(C)

Q: What does the source list for `Cc1c(Cl)c2c(Cl)c(C)c1-c1c(-c3ccc(F)cc3)sc3ncnc(c13)O[C@@H](C(=O)O)Cc1cc(ccc1OCc1ccnc(-c3ccc(OC[C@H]4COCCO4)cc3)n1)OC[C@@H](CN1CCN(C)CC1)O2` [Compound A-1747745.0]?
A: Xenograft AMO-1 (DSMZ) tumor volume Day 24, Median (6.25 mg/kg Q7Dx2 IV, SCID-beige female mice, Day 24): 183.76 mm³; Xenograft AMO-1 (DSMZ) tumor volume Day 26, Mean [1]: 300.68 mm³; Xenograft AMO-1 (DSMZ) tumor volume Day 26, Median [1]: 173.91 mm³; Xenograft AMO-1 (DSMZ) tumor volume Day 26, individual animals [1]: 165 mm³ and 890 mm³ and 293 mm³ and 308 mm³ and 143 mm³ and 174 mm³ and 132 mm³; Xenograft AMO-1 (DSMZ) (mm³) Day 28, individual animals [2]: 242 mm³ and 1605 mm³ and 585 mm³ and 510 mm³ and 266 mm³ and 306 mm³ and 32 mm³; Xenograft AMO-1 (DSMZ) Day 28 Mean [2]: 506.48 mm³; Xenograft AMO-1 (DSMZ) Day 28 Median [2]: 305.62 mm³; Xenograft AMO-1 (DSMZ) tumor volume Day 13, Mean [3]: 222.44 mm³; Xenograft AMO-1 (DSMZ) tumor volume Day 13, Median [3]: 219.48 mm³; Xenograft AMO-1 (DSMZ) tumor volume Day 13, individual animals [3]: 230 mm³ and 206 mm³ and 247 mm³ and 219 mm³ (2×) and 232 mm³ and 204 mm³; Xenograft AMO-1 (DSMZ) (mm³) Day 32 Mean (6.25 mg/kg Q7Dx2 IV, group mean tumor volume, Day 32): 1661.51 mm³; Xenograft AMO-1 (DSMZ) (mm³) Day 32 Median (6.25 mg/kg Q7Dx2 IV, group median tumor volume, Day 32): 1251.91 mm³; Xenograft AMO-1 (DSMZ) (mm³) Day 32 (6.25 mg/kg Q7Dx2 IV, individual animal tumor volume, Day 32): 1252 mm³ and 3313 mm³ and 2126 mm³ and 1223 mm³ and 2463 mm³ and 1036 mm³ and 218 mm³; Xenograft AMO-1 (DSMZ) tumor volume Day 26, Mean [4]: 454.97 mm³; Xenograft AMO-1 (DSMZ) tumor volume Day 26, Median [4]: 392.97 mm³; % T/C (mean) tumor volume Day 26 (6.25 mg/kg QDx1 IV, Day 26, mean(T)/mean(C)): 28.88%; % T/C (median) tumor volume Day 26 (6.25 mg/kg QDx1 IV, Day 26, median(T)/median(C)): 24.60%; Xenograft AMO-1 (DSMZ) tumor volume Day 28, Mean [5]: 690.68 mm³; Xenograft AMO-1 (DSMZ) tumor volume Day 28, Median [5]: 578.26 mm³; % T/C (mean) tumor volume Day 28 (6.25 mg/kg QDx1 IV, Day 28, mean(T)/mean(C)): 33.71%; % T/C (median) tumor volume Day 28 (6.25 mg/kg QDx1 IV, Day 28, median(T)/median(C)): 29.98%; Xenograft AMO-1 (DSMZ) tumor volume Day 26, individual animals (6.25 mg/kg QDx1 IV, SCID-beige female mice, Day 26): 386 mm³ and 701 mm³ and 245 mm³ and 206 mm³ and 598 mm³ and 235 mm³ and 868 mm³ and 400 mm³; Xenograft AMO-1 (DSMZ) tumor volume Day 28, individual animals (6.25 mg/kg QDx1 IV, SCID-beige female mice, Day 28): 518 mm³ and 1122 mm³ and 542 mm³ and 307 mm³ and 666 mm³ and 511 mm³ and 1246 mm³ and 614 mm³; Xenograft AMO-1 (DSMZ) Day 21, Mean [6]: 175.92 mm³; Xenograft AMO-1 (DSMZ) Day 21, Median [6]: 202.13 mm³; Xenograft AMO-1 (DSMZ) (mm³) Day 21, individual animals (6.25 mg/kg QDx1 IV, SCID-beige mice, Day 21, individual tumor volumes): 202 mm³ (2×) and 236 mm³ and 49 mm³ and 84 mm³ and 144 mm³ and 230 mm³ and 260 mm³; % T/C (mean), Tumor Volume Day 21 (6.25 mg/kg QDx1 IV, SCID-beige mice, Day 21, mean(T)/mean(C)): 27.52%; % T/C (median), Tumor Volume Day 21 (6.25 mg/kg QDx1 IV, SCID-beige mice, Day 21, median(T)/median(C)): 38.38%; Xenograft AMO-1 (DSMZ) Day 23 Mean [7]: 218.85 mm³; Xenograft AMO-1 (DSMZ) Day 23 Median [7]: 225.89 mm³; Xenograft AMO-1 (DSMZ) (mm³) Day 23, individual animals (6.25 mg/kg QDx1 IV, SCID-beige mice, Day 23, individual tumor volumes): 209 mm³ and 282 mm³ and 56 mm³ and 156 mm³ and 155 mm³ and 243 mm³ and 349 mm³ and 301 mm³; % T/C (mean), body weight Day 23 [8]: 103.53%; % T/C (mean), tumor volume Day 23 [8]: 20.49%; % T/C (median), body weight Day 23 [9]: 103.53%; % T/C (median), tumor volume Day 23 [9]: 23.21%; Xenograft AMO-1 (DSMZ) (mm³) Day 30 (individual animals) (6.25 mg/kg QDx1 IV, Day 30, SCID-beige female mice, tumor volume per animal): 694 mm³ and 1347 mm³ and 555 mm³ and 384 mm³ and 801 mm³ and 782 mm³ and 1535 mm³ and 959 mm³; Xenograft AMO-1 (DSMZ) (mm³) Day 30 Mean (6.25 mg/kg QDx1 IV, Day 30, group mean): 882.20 mm³; Xenograft AMO-1 (DSMZ) (mm³) Day 30 Median (6.25 mg/kg QDx1 IV, Day 30, group median): 791.67 mm³; Xenograft AMO-1 (DSMZ) (mm³) Day 34 (individual animals) (6.25 mg/kg QDx1 IV, Day 34, SCID-beige female mice, tumor volume per animal): 2680 mm³ and 1975 mm³ and 1296 mm³ and 886 mm³ and 1388 mm³ and 1259 mm³ and 1718 mm³ and 1542 mm³

— article PMC10600239, “Selective MCL-1 inhibitor ABBV-467 is efficacious in tumor models but is associated with cardiac troponin increases in patients” (Communications Medicine, 2023)
